Measured values reported in the kinase profiling compilation of Christmann-Franck et al. (2016).

Tests used:
Conditions in all cases: compound 10.0 µM
[1] = molecular target: ALK (human) (UniProt Q9UM73)
[2] = molecular target: BMPR1A (human) (UniProt P36894)
[3] = molecular target: CAMK2D (human) (UniProt Q13557)
[4] = molecular target: CDK7 (human) (UniProt P50613)
[5] = molecular target: CDK9 (human) (UniProt P50750)
[6] = molecular target: CDKL3 (human) (UniProt Q8IVW4)
[7] = molecular target: CHEK1 (human) (UniProt O14757)
[8] = molecular target: CIT (human) (UniProt O14578)
[9] = molecular target: CLK1 (human) (UniProt P49759)
[10] = tested on: CPK1 (P.falciparum)
[11] = molecular target: CaMK1 (human) (UniProt Q14012)
[12] = molecular target: DYRK2 (human) (UniProt Q92630)
[13] = molecular target: EPHB1 (human) (UniProt P54762)
[14] = molecular target: ERBB4 (human) (UniProt Q15303)
[15] = molecular target: FES (human) (UniProt P07332)
[16] = tested on: FGFR3 (human), P22607 [G697C]
[17] = molecular target: FGR (human) (UniProt P09769)
[18] = tested on: FLT3 (human), P36888 [N841I]
[19] = molecular target: ITK (human) (UniProt Q08881)
[20] = molecular target: MAP3K13 (human) (UniProt O43283)
[21] = molecular target: MAP4K2 (human) (UniProt Q12851)
[22] = molecular target: MAP4K5 (human) (UniProt Q9Y4K4)
[23] = molecular target: MAPK3 (human) (UniProt P27361)
[24] = molecular target: MAPKAPK2 (human) (UniProt P49137)
[25] = molecular target: MAPKAPK5 (human) (UniProt Q8IW41)
[26] = molecular target: MATK (human) (UniProt P42679)
[27] = molecular target: MERTK (human) (UniProt Q12866)
[28] = molecular target: MKNK2 (human) (UniProt Q9HBH9)
[29] = molecular target: NEK7 (human) (UniProt Q8TDX7)
[30] = molecular target: PAK6 (human) (UniProt Q9NQU5)
[31] = molecular target: PRKCH (human) (UniProt P24723)
[32] = molecular target: PRKCI (human) (UniProt P41743)
[33] = molecular target: PRKD3 (human) (UniProt O94806)
[34] = molecular target: RIPK1 (human) (UniProt Q13546)
[35] = molecular target: SGK3 (human) (UniProt Q96BR1)
[36] = molecular target: SIK2 (human) (UniProt Q9H0K1)
[37] = molecular target: SIK3 (human) (UniProt Q9Y2K2)
[38] = molecular target: STK11 (human) (UniProt Q15831)
[39] = molecular target: STK17B (human) (UniProt O94768)
[40] = molecular target: STK36 (human) (UniProt Q9NRP7)
[41] = molecular target: TTK (human) (UniProt P33981)
[42] = molecular target: TYRO3 (human) (UniProt Q06418)
TYRO3 (human), sequence (Q06418 whole entry, looked up): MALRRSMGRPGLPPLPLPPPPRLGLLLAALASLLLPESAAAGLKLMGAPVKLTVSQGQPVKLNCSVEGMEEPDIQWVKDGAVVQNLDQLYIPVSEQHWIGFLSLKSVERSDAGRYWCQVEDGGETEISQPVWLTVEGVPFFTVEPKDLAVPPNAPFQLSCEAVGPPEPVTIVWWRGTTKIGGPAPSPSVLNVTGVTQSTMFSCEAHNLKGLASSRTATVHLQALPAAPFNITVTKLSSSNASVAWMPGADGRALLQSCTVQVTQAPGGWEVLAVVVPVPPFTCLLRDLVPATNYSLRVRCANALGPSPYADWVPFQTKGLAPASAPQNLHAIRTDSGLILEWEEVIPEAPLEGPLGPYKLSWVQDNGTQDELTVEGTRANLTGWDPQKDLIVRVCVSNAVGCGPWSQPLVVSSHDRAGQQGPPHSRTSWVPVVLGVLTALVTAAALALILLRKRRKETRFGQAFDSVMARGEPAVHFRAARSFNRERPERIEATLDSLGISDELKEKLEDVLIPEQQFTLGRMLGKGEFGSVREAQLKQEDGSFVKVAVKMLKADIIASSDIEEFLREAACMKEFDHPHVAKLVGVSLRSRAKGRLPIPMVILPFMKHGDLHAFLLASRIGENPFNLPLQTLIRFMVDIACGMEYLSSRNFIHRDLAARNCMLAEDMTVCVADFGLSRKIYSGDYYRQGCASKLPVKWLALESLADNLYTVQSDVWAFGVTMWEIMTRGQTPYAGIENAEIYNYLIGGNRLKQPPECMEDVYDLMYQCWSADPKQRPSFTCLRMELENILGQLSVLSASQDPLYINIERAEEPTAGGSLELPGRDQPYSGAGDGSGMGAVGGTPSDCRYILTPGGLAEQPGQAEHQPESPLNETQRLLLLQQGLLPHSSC

PRKCH (human), sequence (P24723 whole entry, looked up): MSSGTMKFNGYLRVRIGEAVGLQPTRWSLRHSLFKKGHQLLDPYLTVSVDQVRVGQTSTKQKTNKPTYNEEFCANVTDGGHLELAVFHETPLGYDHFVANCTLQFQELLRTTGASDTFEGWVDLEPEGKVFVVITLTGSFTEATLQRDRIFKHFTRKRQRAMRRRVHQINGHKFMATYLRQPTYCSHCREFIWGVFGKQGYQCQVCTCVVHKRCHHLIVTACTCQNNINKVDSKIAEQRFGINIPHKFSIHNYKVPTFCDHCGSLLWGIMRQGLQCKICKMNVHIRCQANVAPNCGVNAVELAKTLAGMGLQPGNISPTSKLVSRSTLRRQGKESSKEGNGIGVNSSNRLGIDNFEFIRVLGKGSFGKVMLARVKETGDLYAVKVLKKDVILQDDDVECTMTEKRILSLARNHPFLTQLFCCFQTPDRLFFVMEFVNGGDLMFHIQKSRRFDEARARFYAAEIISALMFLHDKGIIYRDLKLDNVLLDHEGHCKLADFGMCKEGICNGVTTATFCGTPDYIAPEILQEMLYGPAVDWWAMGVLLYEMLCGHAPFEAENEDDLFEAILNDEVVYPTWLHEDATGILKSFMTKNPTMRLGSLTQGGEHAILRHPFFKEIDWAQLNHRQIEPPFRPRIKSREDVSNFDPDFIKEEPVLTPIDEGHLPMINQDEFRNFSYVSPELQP
FGFR3 (human), P22607 [G697C], sequence (P22607 whole entry G697C, looked up): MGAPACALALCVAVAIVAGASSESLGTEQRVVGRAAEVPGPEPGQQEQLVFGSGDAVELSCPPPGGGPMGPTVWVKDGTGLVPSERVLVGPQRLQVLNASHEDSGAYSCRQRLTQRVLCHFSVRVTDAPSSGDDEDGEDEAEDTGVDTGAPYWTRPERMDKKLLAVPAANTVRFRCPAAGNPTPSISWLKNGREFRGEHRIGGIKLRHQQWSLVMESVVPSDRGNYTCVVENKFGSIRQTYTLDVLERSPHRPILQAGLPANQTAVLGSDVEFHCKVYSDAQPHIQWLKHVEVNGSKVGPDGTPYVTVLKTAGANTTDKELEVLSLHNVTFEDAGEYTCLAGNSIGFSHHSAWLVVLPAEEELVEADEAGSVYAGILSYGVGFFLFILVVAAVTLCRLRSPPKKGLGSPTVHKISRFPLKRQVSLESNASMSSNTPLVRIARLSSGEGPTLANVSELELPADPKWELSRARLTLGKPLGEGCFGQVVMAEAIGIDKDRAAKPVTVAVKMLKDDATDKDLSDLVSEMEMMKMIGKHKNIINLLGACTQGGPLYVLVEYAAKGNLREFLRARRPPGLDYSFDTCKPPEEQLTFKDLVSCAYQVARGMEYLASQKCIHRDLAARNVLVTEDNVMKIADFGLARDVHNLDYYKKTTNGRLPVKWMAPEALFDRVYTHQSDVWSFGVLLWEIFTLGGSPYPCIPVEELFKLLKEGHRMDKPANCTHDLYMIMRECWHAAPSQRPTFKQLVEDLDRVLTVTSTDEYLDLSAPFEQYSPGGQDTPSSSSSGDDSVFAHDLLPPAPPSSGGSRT
ITK (human), sequence (Q08881 whole entry, looked up): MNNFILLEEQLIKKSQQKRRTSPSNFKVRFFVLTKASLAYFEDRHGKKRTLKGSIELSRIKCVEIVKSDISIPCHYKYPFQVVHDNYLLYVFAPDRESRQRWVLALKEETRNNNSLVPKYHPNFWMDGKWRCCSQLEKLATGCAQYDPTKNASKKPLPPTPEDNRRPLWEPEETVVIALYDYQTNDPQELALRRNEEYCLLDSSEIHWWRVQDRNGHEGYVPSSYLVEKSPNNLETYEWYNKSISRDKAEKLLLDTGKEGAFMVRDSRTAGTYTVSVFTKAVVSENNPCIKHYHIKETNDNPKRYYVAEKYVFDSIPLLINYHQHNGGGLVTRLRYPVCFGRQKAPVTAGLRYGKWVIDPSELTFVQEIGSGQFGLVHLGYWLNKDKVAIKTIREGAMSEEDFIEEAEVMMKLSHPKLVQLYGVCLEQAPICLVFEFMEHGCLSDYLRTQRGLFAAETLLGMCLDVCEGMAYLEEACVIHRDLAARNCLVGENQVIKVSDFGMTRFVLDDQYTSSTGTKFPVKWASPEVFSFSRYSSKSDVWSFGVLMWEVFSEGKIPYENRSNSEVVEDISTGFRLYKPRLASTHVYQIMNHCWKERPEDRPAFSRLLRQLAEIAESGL
BMPR1A (human), sequence (P36894 whole entry, looked up): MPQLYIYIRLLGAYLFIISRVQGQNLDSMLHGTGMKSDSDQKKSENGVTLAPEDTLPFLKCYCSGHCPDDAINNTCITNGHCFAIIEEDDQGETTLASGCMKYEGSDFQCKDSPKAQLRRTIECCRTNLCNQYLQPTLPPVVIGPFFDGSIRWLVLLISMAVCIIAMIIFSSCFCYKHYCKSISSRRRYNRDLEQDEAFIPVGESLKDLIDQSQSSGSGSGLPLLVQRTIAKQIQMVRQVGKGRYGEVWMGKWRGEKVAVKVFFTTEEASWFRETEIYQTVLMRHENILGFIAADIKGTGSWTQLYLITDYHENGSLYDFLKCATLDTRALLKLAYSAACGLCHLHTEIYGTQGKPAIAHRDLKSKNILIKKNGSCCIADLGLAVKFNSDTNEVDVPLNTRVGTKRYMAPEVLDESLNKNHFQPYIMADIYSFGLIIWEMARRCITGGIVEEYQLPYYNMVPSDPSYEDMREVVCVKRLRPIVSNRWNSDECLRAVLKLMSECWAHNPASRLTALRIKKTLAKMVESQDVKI
PRKD3 (human), sequence (O94806 whole entry, looked up): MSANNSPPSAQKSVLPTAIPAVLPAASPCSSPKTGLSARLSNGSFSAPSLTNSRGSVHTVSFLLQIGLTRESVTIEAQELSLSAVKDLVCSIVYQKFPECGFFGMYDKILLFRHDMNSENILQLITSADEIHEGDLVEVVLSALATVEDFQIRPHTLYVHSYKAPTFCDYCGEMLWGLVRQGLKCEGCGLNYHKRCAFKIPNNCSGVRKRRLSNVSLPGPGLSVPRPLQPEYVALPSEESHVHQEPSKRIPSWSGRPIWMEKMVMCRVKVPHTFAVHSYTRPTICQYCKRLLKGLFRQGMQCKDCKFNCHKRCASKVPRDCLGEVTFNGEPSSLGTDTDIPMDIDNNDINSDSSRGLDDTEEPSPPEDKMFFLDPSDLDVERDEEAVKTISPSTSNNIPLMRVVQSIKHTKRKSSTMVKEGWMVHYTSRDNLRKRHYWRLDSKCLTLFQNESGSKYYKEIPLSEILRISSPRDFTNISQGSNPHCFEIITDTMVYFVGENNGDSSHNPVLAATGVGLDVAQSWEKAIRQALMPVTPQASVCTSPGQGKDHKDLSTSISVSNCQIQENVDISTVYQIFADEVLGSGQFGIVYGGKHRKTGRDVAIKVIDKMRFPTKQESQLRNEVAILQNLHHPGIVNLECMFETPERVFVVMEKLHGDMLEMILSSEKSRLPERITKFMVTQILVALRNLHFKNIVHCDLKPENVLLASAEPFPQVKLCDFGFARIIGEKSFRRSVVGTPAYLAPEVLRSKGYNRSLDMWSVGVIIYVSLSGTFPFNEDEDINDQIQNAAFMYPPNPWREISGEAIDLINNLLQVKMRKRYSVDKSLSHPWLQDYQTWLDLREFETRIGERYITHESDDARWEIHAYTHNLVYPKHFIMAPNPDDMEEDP
MAPKAPK5 (human), sequence (Q8IW41 whole entry, looked up): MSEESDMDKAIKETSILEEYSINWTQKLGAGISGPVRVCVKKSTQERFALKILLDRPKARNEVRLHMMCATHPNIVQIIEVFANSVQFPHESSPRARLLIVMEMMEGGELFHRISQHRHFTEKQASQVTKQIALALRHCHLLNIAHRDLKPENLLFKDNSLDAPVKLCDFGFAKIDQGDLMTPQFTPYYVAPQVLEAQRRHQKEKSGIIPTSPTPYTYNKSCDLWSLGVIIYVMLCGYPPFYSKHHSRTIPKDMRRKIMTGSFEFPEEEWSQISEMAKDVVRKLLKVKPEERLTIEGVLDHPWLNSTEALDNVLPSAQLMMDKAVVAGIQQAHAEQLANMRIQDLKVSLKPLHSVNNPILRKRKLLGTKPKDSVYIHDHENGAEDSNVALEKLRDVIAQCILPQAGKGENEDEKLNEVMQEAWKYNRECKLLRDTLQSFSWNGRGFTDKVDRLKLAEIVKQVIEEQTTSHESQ

CNC(=O)c1cc(Oc2ccc(NC(=O)Nc3ccc(Cl)c(C(F)(F)F)c3)cc2)ccn1
per cent of control [1]: 100%
per cent of control [2]: 100%
per cent of control [3]: 89%
per cent of control [4]: 3.2%
per cent of control [5]: 62%
per cent of control [6]: 0.35%
per cent of control [7]: 49%
per cent of control [8]: 20%
per cent of control [9]: 29%
per cent of control [10]: 0.8%
per cent of control [11]: 87%
per cent of control [12]: 60%
per cent of control [13]: 18%
per cent of control [14]: 92%
per cent of control [15]: 72%
per cent of control [16]: 25%
per cent of control [17]: 41%
per cent of control [18]: 0%
per cent of control [19]: 100%
per cent of control [20]: 88%
per cent of control [21]: 93%
per cent of control [22]: 1.5%
per cent of control [23]: 95%
per cent of control [24]: 91%
per cent of control [25]: 100%
per cent of control [26]: 64%
per cent of control [27]: 2.4%
per cent of control [28]: 0.1%
per cent of control [29]: 100%
per cent of control [30]: 86%
per cent of control [31]: 89%
per cent of control [32]: 100%
per cent of control [33]: 70%
per cent of control [34]: 88%
per cent of control [35]: 72%
per cent of control [36]: 74%
per cent of control [37]: 100%
per cent of control [38]: 98%
per cent of control [39]: 66%
per cent of control [40]: 16%
per cent of control [41]: 15%
per cent of control [42]: 100%

CNC(=O)c1cc(Oc2ccc(NC(=O)Nc3ccc(Cl)c(C(F)(F)F)c3)cc2)cc[n+]1[O-]
per cent of control [1]: 94%
per cent of control [2]: 91%
per cent of control [3]: 87%
per cent of control [4]: 5%
per cent of control [5]: 73%
per cent of control [6]: 0.3%
per cent of control [7]: 79%
per cent of control [8]: 27%
per cent of control [9]: 46%
per cent of control [10]: 0.15%
per cent of control [11]: 58%
per cent of control [12]: 26%
per cent of control [13]: 20%
per cent of control [14]: 100%
per cent of control [15]: 98%
per cent of control [16]: 50%
per cent of control [17]: 28%
per cent of control [18]: 0%
per cent of control [19]: 100%
per cent of control [20]: 68%
per cent of control [21]: 66%
per cent of control [22]: 0.45%
per cent of control [23]: 92%
per cent of control [24]: 100%
per cent of control [25]: 100%
per cent of control [26]: 62%
per cent of control [27]: 2%
per cent of control [28]: 0.05%
per cent of control [29]: 100%
per cent of control [30]: 82%
per cent of control [31]: 84%
per cent of control [32]: 100%
per cent of control [33]: 83%
per cent of control [34]: 87%
per cent of control [35]: 42%
per cent of control [36]: 66%
per cent of control [37]: 100%
per cent of control [38]: 100%
per cent of control [39]: 62%
per cent of control [40]: 26%
per cent of control [41]: 9%
per cent of control [42]: 100%
